Results taken from PMC8151276, “An Integrated Approach toward NanoBRET Tracers for Analysis of GPCR Ligand Engagement” (Molecules, 2021).

Test system: HiBiT-GPCRs
Experiment: NanoBRET saturation ligand-engagement assay in HEK293
Assay type: binding, human
Excerpt: Metabotropic GRM1 glutamate receptor, metabotropic 1 glutamate GRM2 glutamate receptor, metabotropic 2
GRM3 glutamate receptor, metabotropic 3
GRM4 glutamate receptor, metabotropic 4
GRM5 glutamate receptor, metabotropic 5
GRM7 glutamate receptor, metabotropic 7
GRM8 glutamate receptor, metabotropic 8
Glucagon ADCYAP1R1 adenylate cyclase activating polypeptide 1
(pituitary) receptor type I
Lutropin- LHCGR luteinizing hormone/choriogonadotropin choriogonadotropin receptor
Cysteinyl leukotriene CYSLTR1 cysteinyl leukotriene receptor 1
CYSLTR2 cysteinyl leukotriene receptor 2
Cell culture and transfection
HEK293 cells were obtained from American Type Culture Collection (ATCC) and cultured at 37 °C/5% CO2 in Dulbecco's Modified Eagle Medium (DMEM) (Gibco) supplemented with 10% fetal bovine serum (Seradigm) and 100 units/mL of penicillin-streptomycin (Gibco). Transfections were carried out using Viafect (Promega) at a 1:3 DNA/transfection reagent ratio. Generally, DNA encoding HiBiT-GPCR fusion was diluted 1:100 in promoterless carrier DNA. […]
in the presence of 30 μM competing unmodified compound for 90 min at room temperature. […] Filtered luminescence was then measured using GloMax Discover microplate reader (Promega) equipped with a 450-nm (8-nm band pass) filter (donor) and a 600-nm long pass filter (acceptor). BRET was calculated by dividing the acceptor emission by the donor emission. […]

- EC50 (range over 17 of the 19 GPCRs, background corrected with competing Clozapine (30 μM), read-out: EC50 values (concentration-dependent tracer binding)): 1 to 600 nM
Structure (SMILES): O=C(CCOCCOCCOCCOCCNC(=O)CCc1ccc2n1[B-](F)(F)[N+]1=C(c3ccc[nH]3)C=CC1=C2)NCCCN1CCN(C2=Nc3cc(Cl)ccc3Nc3ccccc32)CC1 [Clozapine-a-2-NB590]
- Concentration-dependent binding (ADRA2A and HTR1D, competing Clozapine (30 μM)): specific but suffered from high background
